Assay results from patent publication US20070213393A1, “COMPOSITIONS AND METHODS FOR TREATING INFLAMMATORY CONDITIONS UTILIZING PROTEIN OR POLYSACCHARIDE CONTAINING ANTI-MICROTUBULE AGENTS” (ANGIOTECH INTERNATIONAL AG, priority 2001, published 2007).
≈ marks a conversion by molar mass, not a printed value.

Tests used:
[1] = Compatibility of co-solvent carrier with hyaluronic acid hydrogel (visually observed turbidity); format: physicochemical; conditions: solvent added in 200 μl aliquots to 2 ml gel of 20 mg/ml hyaluronic acid in water; maximum added 5 ml
Procedure: Co-solvent systems were prepared by the addition of water miscible organic solvents to a hyaluronic acid (HA) gel containing 20 mg/ml hyaluronic acid in water. The organic solvent was added with stirring in aliquots of 200 μl. After the addition of each aliquot, the mixture was allowed to stir for several minutes and observed for signs of turbidity or rapidly changing viscosity. At the first sign of visually observed turbidity, the volume of organic solvent added was noted and the ratio of co-solvent to water calculated. In the event that turbidity was not observed the maximum amount of solvent added was 5 ml to 2 ml of gel.

[2] = test system: normal chondrocytes and non-proliferating synoviocytes; conditions: cited from earlier work
AP-1 = conditions: via reduced AP-1 binding to DNA; cited from earlier work
synoviocytes = conditions: cited from earlier work
physchem = conditions: aqueous with cosolvent or surfactant or cyclodextrin, thermodynamic from solid
Procedure: After determining suitability in this manner, co-solvent systems may be further assessed in terms of biocompatibility. Solubility was determined as follows:
To a 1 ml aliquot of a co-solvent system described by the ratio of organic solvent to water was added precisely to 5 and 10 mg±10% paclitaxel. The mixtures were equilibrated at room temperature for 16 hours and observed for clarity and particulates in the liquid.

T-cell = conditions: cited from earlier work
[3] = test system: collagen induced arthritis in an animal model; conditions: cited from earlier work
neutrophil = conditions: cited from earlier work

C[S+](C)[O-] [Dimethylsulfoxide]
Max. amt. added to HA Gel without turbidity [1]: >5 ml in 2 ml

CCOCCOCCO [Ethoxydiglycol]
Max. amt. added to HA Gel without turbidity [1]: 2 ml in 2 ml

CC(=O)O[C@H]1C(=O)[C@@]2(C)[C@H]([C@H](OC(=O)c3ccccc3)[C@]3(O)C[C@H](OC(=O)[C@H](O)[C@@H](NC(=O)c4ccccc4)c4ccccc4)C(C)=C1C3(C)C)[C@]1(OC(C)=O)CO[C@@H]1C[C@@H]2O [paclitaxel]
toxicity to non-proliferating cells [2]: non-toxic | AP-1 transcription activity (AP-1): inhibits | apoptosis in synoviocytes (synoviocytes): induces | proliferation of synoviocytes (synoviocytes): prevents | solubility at 16 h (physchem; Dimethylsulfoxide:water co-solvent mixture): < 5000 µg/mL | solubility at 16 h (physchem; Ethanol:water co-solvent mixture): 5000 to 10000 µg/mL (≈ 5.86 to 11.7 mM) | solubility at 16 h (physchem; Ethoxydiglycol:water co-solvent mixture): < 5000 µg/mL | solubility at 16 h (physchem; N-methylpyrrolidone:water co-solvent mixture): > 10000 µg/mL | solubility at 16 h (physchem; PEG 200:water co-solvent mixture): 5000 to 10000 µg/mL (≈ 5.86 to 11.7 mM) | T-cell function (T-cell): inhibits | T-cell response to stimuli (T-cell): decreases | collagen induced arthritis [3]: inhibits | neutrophil activation (neutrophil): inhibits

CCO [Ethanol]
Max. amt. added to HA Gel without turbidity [1]: 4 ml in 2 ml

CN1CCCC1=O [N-methylpyrrolidone]
Max. amt. added to HA Gel without turbidity [1]: >5 ml in 2 ml
